“And” between values parts separate entries of the source, which are not always exact repeats. Identical values can stand only once.
Assay: TEAC (Trolox equivalent antioxidant activity) ABTS decolorization assay
Conditions: for antioxidant activity as compared to the Vitamin E standard compound (Trolox): Table 1, statement in words; for TEAC (Ratio % Inhibition): ratio of % inhibition of antioxidant compound / % inhibition of Trolox; for TEAC (Slope): relative to Trolox as standard, slope of % inhibition vs concentration
Protocol: Tests were conducted to evaluate the antioxidant and carbonyl trapping properties of therapeutic compositions according to various embodiments of the present invention. A Trolox equivalent antioxidant activity (TEAC) test was conducted to assess the antioxidant properties as described below in greater detail.
The TEAC antioxidant activity was measured by the ABTS [2,2′-Azinobis-(3-ethylbenzothiazoline-6-sulphonic acid)] decolorization assay. In this method, a stable radical (ABTS radical cation) is formed, and the adsorption maxima is determined. See, for example, R. Ree, N. Pellegrini, A. Proteggente, A. Pannala, M. Yang and C. Rice-Evans, Antioxidant activity applying an improved ABTS radical cation decolorization assay, Free Rad. Biol. & Med., 26 (9/10), 1231-1237 (1999). The addition of antioxidant to the pre-formed radical cation reduces it to an extent and on a time-scale depending on the antioxidant activity, the concentration of the antioxidant and the duration of the reaction. Thus, the extent of reduction (decolorization) as percentage inhibition of the ABTS radical cation is determined as a function of concentration and time and calculated relative to the reactivity of Trolox as a standard under the same conditions. The TEAC value is calculated by the ratio of % of Inhibition of antioxidant compound/% Inhibition of Trolox.

Row | Compound | antioxidant activity as compared to the Vitamin E standard compound (Trolox) | TEAC (Ratio % Inhibition) | TEAC (Slope)
1 | Cc1c(C)c2c(c(C)c1O)CCC(C)(CCN1CCN(C(=O)[C@@H](N)CS)CC1)O2 (some centres unmarked) [VE-CYS-1, N-[2-(6-Hydroxy-tetramethylchroman-2-yl)ethyl]-N′-(cysteinyl)-piperazine] | enhanced antioxidant activity | 1.4-1.5 | 1.4(r2 = 0.9997)
2 | Cc1c(C)c2c(c(C)c1O)CCC(C)(CCON)O2 (centres unmarked) [VE-ONH2-1, 2-(6-Hydroxy-2,5,7,8-tetramethylchroman-2-yl)-1-(aminooxy)ethane] | – | 0.9-1.0 and 0.5-0.8 | 0.9(r2 = 0.9948) and 0.8(r2 = 0.9997)
3 | N-[2-(6-Hydroxy-tetramethylchroman-2-yl)ethyl]-N′-(penicillamyl)-piperazine [VE-PEN-1] | enhanced antioxidant activity | 1.6-2.1 | 1.3(r2 = 0.9996)

Source: patent US7384558B2, “Compositions capable of inhibiting reactive oxygen and carbonyl species” (Baxter International Inc., priority 2004, dated 2008)
